{"source": "patent US20180099967A1", "about": "“FUSED TRICYCLIC HETEROCYCLIC COMPOUNDS AS HIV INTEGRASE INHIBITORS” (MERCK SHARP & DOHME CORP., priority 2015, published 2018)", "tested_on": "HIV-1", "assay": "microbe, parasite or virus in culture", "assay_type": "cell-based, HIV-1 (H9IIIB or NL4-3 virus)", "experimental": "HIV-1 replication was monitored using MT4-gag-GFP clone D3 (hereafter designate MT4-GFP), which are MT-4 cells modified to harbor a GFP reporter gene, the expression of which is dependent on the HIV-1 expressed proteins tat and rev. Productive infection of an MT4-GFP cell with HIV-1 results in GFP expression approximately 24 h post-infection.\nMT4-GFP cells were maintained at 37° C./5% CO2/90% relative humidity in RPMI 1640 supplemented with 10% fetal bovine serum, 100 U/ml penicillin/streptomycin, and 400 μg/ml G418 to maintain the reporter gene. For infections, MT4-GFP cells were placed in the same medium lacking G418 and infected overnight with H9IIIB or NL4-3 virus at an approximate multiplicity of infection of 0.01 in the same incubation conditions. Cells were then washed and resuspended in either RPMI 1640 containing no serum at 1.6×10^5 cells/mL (serum free conditions), 10% normal human serum at 1.6×10^5 cells/mL (10% NHS conditions) or in 100% normal human serum at 2×10^5 cells/mL (100% NHS conditions). Compound plates were prepared by dispensing compounds taken up in DMSO into wells of 384 well poly D lysine-coated plates (0.2 μl/well) using an ECHO acoustic dispenser. Each compound was tested in a 10 point serial 3-fold dilution (typical final concentrations: 4.2 μM-0.21 nM). Controls included no inhibitor (DMSO only) and a combination of three antiviral agents (efavirenz, indinavir, and the integrase strand transfer inhibitor L-002254051 at final concentrations of 4 μM each). Cells were added (50 μL/well) to compound plates and the infected cells were maintained at 37° C./5% CO2/90% relative humidity.\nInfected cells were quantified at two time points, ˜48 h and ˜72 h post-infection, by counting the number of green cells in each well using an Acumen eX3 scanner. […] Inhibition of R0 is calculated for each well, and IC50 value was determined using non-linear 4-parameter curve fitting.", "key": {"[1]": {"details": "Human immunodeficiency virus 1, read-out: WILD TYPE CELL ASSAY Viking IP (0% NHS) (nM)"}, "[2]": {"details": "Human immunodeficiency virus 1, read-out: WILD TYPE CELL ASSAY Viking IP (100% NHS) (nM)"}, "[3]": {"details": "read-out: WILD TYPE CELL ASSAY Viking IP (0% NHS)"}, "[4]": {"details": "read-out: WILD TYPE CELL ASSAY Viking IP (100% NHS)"}}, "note": "Read-outs that look alike come from different tables or passages of the source."}
{"molecule": "CCN1C[C@@H]2C[C@@H](N3CCC3)c3c(C(=O)NCc4cccc(Cl)c4F)c(=O)c(O)c(n32)C1=O", "note": "[Compound 40]", "values": [{"measurement": "IC50", "setting": "[1]", "value": 5, "unit": "nM"}, {"measurement": "IC50", "setting": "[2]", "value": 20, "unit": "nM"}]}
{"molecule": "CCN1C[C@@H]2C[C@@H](NCCCCl)c3c(C(=O)NCc4cccc(Cl)c4F)c(=O)c(O)c(n32)C1=O", "note": "[Compound 41]", "values": [{"measurement": "IC50", "setting": "[1]", "value": 2, "unit": "nM"}, {"measurement": "IC50", "setting": "[2]", "value": 22, "unit": "nM"}]}
{"molecule": "CCN1C[C@@H]2C[C@@H](N3CCCC3)c3c(C(=O)NCc4cccc(Cl)c4F)c(=O)c(O)c(n32)C1=O", "note": "[Compound 42]", "values": [{"measurement": "IC50", "setting": "[1]", "value": 5, "unit": "nM"}, {"measurement": "IC50", "setting": "[2]", "value": 16, "unit": "nM"}]}
{"molecule": "CCN1C[C@H]2C[C@@H](NS(C)(=O)=O)c3c(C(=O)NCc4ccc(F)cc4F)c(=O)c(O)c(n32)C1=O", "note": "[Compound 44]", "values": [{"measurement": "IC50", "setting": "[3]", "value": 2, "unit": "nM"}, {"measurement": "IC50", "setting": "[4]", "value": 19, "unit": "nM"}]}
{"molecule": "CCN1C[C@H]2C[C@H](NS(C)(=O)=O)c3c(C(=O)NCc4ccc(F)cc4F)c(=O)c(O)c(n32)C1=O", "note": "[Compound 45]", "values": [{"measurement": "IC50", "setting": "[3]", "value": 7, "unit": "nM"}, {"measurement": "IC50", "setting": "[4]", "value": 1200, "unit": "nM"}]}
{"molecule": "CCN1C[C@@H]2C[C@H](NS(C)(=O)=O)c3c(C(=O)NCc4ccc(F)cc4F)c(=O)c(O)c(n32)C1=O", "note": "[Compound 46]", "values": [{"measurement": "IC50", "setting": "[1]", "value": 11, "unit": "nM"}, {"measurement": "IC50", "setting": "[2]", "value": 1040, "unit": "nM"}]}
{"molecule": "CCN1C[C@@H]2C[C@@H](NS(C)(=O)=O)c3c(C(=O)NCc4ccc(F)cc4F)c(=O)c(O)c(n32)C1=O", "note": "[Compound 47]", "values": [{"measurement": "IC50", "setting": "[1]", "value": 1, "unit": "nM"}, {"measurement": "IC50", "setting": "[2]", "value": 10, "unit": "nM"}]}
{"molecule": "CCN1C[C@H]2C[C@@H](NS(C)(=O)=O)c3c(C(=O)NCc4ccc(F)c(F)c4F)c(=O)c(O)c(n32)C1=O", "note": "[Compound 48]", "values": [{"measurement": "IC50", "setting": "[1]", "value": 7, "unit": "nM"}, {"measurement": "IC50", "setting": "[2]", "value": 23, "unit": "nM"}]}
{"molecule": "CCN1C[C@H]2C[C@H](NS(C)(=O)=O)c3c(C(=O)NCc4ccc(F)c(F)c4F)c(=O)c(O)c(n32)C1=O", "note": "[Compound 49]", "values": [{"measurement": "IC50", "setting": "[1]", "value": 11, "unit": "nM"}, {"measurement": "IC50", "setting": "[2]", "value": 12500, "unit": "nM"}]}
{"molecule": "CCN1C[C@H]2C[C@@H](NS(C)(=O)=O)c3c(C(=O)NCc4ccc(F)c(Cl)c4F)c(=O)c(O)c(n32)C1=O", "note": "[Compound 50]", "values": [{"measurement": "IC50", "setting": "[1]", "value": 2, "unit": "nM"}, {"measurement": "IC50", "setting": "[2]", "value": 24, "unit": "nM"}]}
{"molecule": "CCN1C[C@H]2C[C@H](NS(C)(=O)=O)c3c(C(=O)NCc4ccc(F)c(Cl)c4F)c(=O)c(O)c(n32)C1=O", "note": "[Compound 51]", "values": [{"measurement": "IC50", "setting": "[1]", "value": 9, "unit": "nM"}, {"measurement": "IC50", "setting": "[2]", "value": 17800, "unit": "nM"}]}
{"molecule": "CCN1C[C@H]2C[C@@H](NS(=O)(=O)c3ccc(C)cc3)c3c(C(=O)NCc4ccc(F)cc4F)c(=O)c(O)c(n32)C1=O", "note": "[Compound 52]", "values": [{"measurement": "IC50", "setting": "[1]", "value": 22, "unit": "nM"}, {"measurement": "IC50", "setting": "[2]", "value": 310, "unit": "nM"}]}
{"molecule": "CCN1C[C@H]2C[C@H](NS(=O)(=O)c3ccc(C)cc3)c3c(C(=O)NCc4ccc(F)cc4F)c(=O)c(O)c(n32)C1=O", "note": "[Compound 53]", "values": [{"measurement": "IC50", "setting": "[1]", "value": 34, "unit": "nM"}, {"measurement": "IC50", "setting": "[2]", "value": 2260, "unit": "nM"}]}
{"molecule": "CCN1C[C@H]2C[C@@H](NC(C)=O)c3c(C(=O)NCc4ccc(F)cc4F)c(=O)c(O)c(n32)C1=O", "note": "[Compound 55]", "values": [{"measurement": "IC50", "setting": "[1]", "value": 8, "unit": "nM"}, {"measurement": "IC50", "setting": "[2]", "value": 540, "unit": "nM"}]}
{"molecule": "CCN1C[C@@H]2C[C@@H](NC(C)=O)c3c(C(=O)NCc4ccc(F)cc4F)c(=O)c(O)c(n32)C1=O", "note": "[Compound 56]", "values": [{"measurement": "IC50", "setting": "[1]", "value": 2, "unit": "nM"}, {"measurement": "IC50", "setting": "[2]", "value": 14, "unit": "nM"}]}
{"molecule": "CCN1C[C@@H]2C[C@H](NC(C)=O)c3c(C(=O)NCc4ccc(F)cc4F)c(=O)c(O)c(n32)C1=O", "note": "[Compound 57]", "values": [{"measurement": "IC50", "setting": "[1]", "value": 24, "unit": "nM"}, {"measurement": "IC50", "setting": "[2]", "value": 135, "unit": "nM"}]}
{"molecule": "CCN1C[C@@H]2CC(NC(=O)C(=O)N(C)C)c3c(C(=O)NCc4ccc(F)cc4F)c(=O)c(O)c(n32)C1=O", "note": "(stereo partly shown) [Compound 59]", "values": [{"measurement": "IC50", "setting": "[3]", "value": 6, "unit": "nM"}, {"measurement": "IC50", "setting": "[4]", "value": 34, "unit": "nM"}]}
